US8680129B2, “Compounds, composition, methods, targets for cancer therapy” (priority 2008, dated 2014)
Like-named read-outs stand apart in the source and are kept apart here.

Columns and labels:
UM-SCC-6 cells = test: pUC19 DNA transfection plus chemotherapeutic drug, cell viability; format: cell-based, human; conditions: for IC50: Homo sapiens, read-out: IC50 of 5-FU; for IC50 of Cis-Platinum: UM-SCC-6 cells
Description: UM-SCC-6 cells were transfected with pUC19 DNA, pcDNA3, pUC19+pcDNA3, IKK1-KA+pUC19, IKK2-KA+pUC19, and IKK1-KA+IKK2-KA+pUC19, IKK1-KA+pcDNA3, IKK2-KA+pcDNA3, or IKK1-KA+IKK2-KA+pcDNA3, for 48 hours and, treated with variable doses of 5-FU (FIG. 6A) or Cis-Platinum (FIG. 6B) for […] respectively. Cell viabilities were measured in 72 and 96 hours respectively after drug treatment.

[1] = test system: UM-SCC6, Cal27 and HEKa cells; test: Modified WST-1r and Apigenin, cancer versus non-cancer cells, single agents; format: cell-based, human; conditions: 10% modified WST-1r (mPMS 20 μM, WST-1c 1 mM) or Apigenin 30 or 100 μM, 4 hours then 24 hours
Description: Comparison of cell responses to modified WST-1r and Apigenin combination treatment between cancer cells and non-cancer cells. UM-SCC6, Cal27 human head and neck cancer cell lines and primary cultured human […] keratinocytes (HEKa) as labeled were treated with 10% modified WST-1r (mPMS 20 μM, WST-1c 1 mM) with (WST-1r 10) or without (WST-1r 0) 10% modified WST-1r in combination with 0 (Apigenin 0), 30 (Apigenin 30) or 100 (Apigenin 100) μM Apigenin for 4 hours, then, changed to apigenin in the corresponding concentrations for another 24 hours.

[2] = test system: phosphorylated JNK in UM-SCC6 cells; test: JNK phosphorylation (FACE Kit); format: cell-based, human; conditions: 4 hours
Description: Method: UM-SCC6 cells were treated with WST-1r and apigenin at the indicated doses for 4 hours, and then phosphorylated JNK and total JNK were measured in parallel with FACE Kit (Qiogen). The resulting data were normalized to total cell number measured by crystal violet staining The phosphorylated JNK from each measurement were normalized to the ratio of phosphorylated JNK over total JNK values.

MDA-MB-231 cells = test: WST-1r and apigenin dose-response, cell viability by CCK8; format: cell-based
Description: (§1) Method: UM-SCC6, MDA-MB-231, Cal27, HT1080, T294, B6-5 and A431 cells were treated with 3% or 10% of WST-1r or 10, 30, or 100 μM apigenin or combination of variable concentrations of WST-1r with apigenin in parallel with untreated control cells and DMSO control for 4 hours, then, the treatments were removed and the cells, thus, treated were changed to normal growth medium and maintained in culture for another 24 hours. DMSO was used as vehicle control. Cell viabilities were measured by CCK8 Kit and normalized to % of untreated control calls.

A431 cells = test: as above; format: cell-based
Description: as §1

[3] = test system: ROS generation in UM-SCC6 cells; test: Dose response of ROS generation (CM-H2-DCFDA fluorescence); format: cell-based, human
Description: Method: UM-SCC6 cells were labeled with 10 μM CM-H2-DCFDA for 15 minutes and then treated with WST-1r or CCK8 at the indicated amounts in combination with variable doses of apigenin (A) or IKK Inhibitor III (B) for 4 hours. Fluorescence at Ex485/Em535 were measured for detecting ROS generation that labeled by the CM-H2-DCFDA.

UM-SCC6 cells [4] = test: CCK8, XTT, WST-1r comparison in combination with apigenin, cell viability; format: cell-based, human; conditions: for IC50: Homo sapiens, read-out: Apigenin 1050
Description: Method: HT1080 and UM-SCC6 cells were treated with 10% of WST-1r, CCK8 or XTT in combination with variable doses of apigenin for 4 hours and, then changed to normal growth medium for another 24 hours. Cell viability was measured with CCK8 kit.

UM-SCC6 cells [5] = test: mPMS dose-response with WST-1c and apigenin, cell viability; format: cell-based, human; conditions: mPMS variable with 1 mM WST-1c and 10, 30 or 100 μM apigenin
Description: (§2) Method: A & B: HT1080 (FIG. 16A) and UM-SCC6 (FIG. 16B) cells were treated with variable concentrations of mPMS as indicated in combination with 1 mM WST-1c and 10, 30 or 100 μM apigenin for 4 hours and, then, changed to normal growth medium for another 24 hours. Cell viabilities were measured by CCK8 Kit. 1 mM WST-1 only, 0.12 mM mPMS only and 10% WST-1r were used as parallel control. AP 0: Untreated Control, AP 10: 10 μM Apigenin, AP 30: 30 μM Apigenin, AP 100: 100 μM Apigenin.

HT1080 cells [6] = test: as above; format: cell-based, human; conditions: mPMS variable with 1 mM WST-1c and 10, 30 or 100 μM apigenin
Description: as §2

non cancer HEKa cells = test: WST-3 with apigenin, cell viability by CCK8; format: cell-based, human; conditions: for cell death, single agent: apigenin or WST-3 alone
Description: (§3) Method: UM-SCC6, HT1080, Cal27, SK-Mel-5, and HEKa cells were treated with 50 or 100 μM WST-3 or 10 or 30 μM apigenin alone, or combination of WST-3 and apigenin at different concentrations for 4 hours with untreated cells as control, then, changed to normal growth medium and remained culture in this medium for another 24 hours. After the 24 hours culture, cell viabilities were measured with CCK8 Kit. Data were normalized to % of untreated control cells.

SK-Mel-5 cells = test: WST-3 with apigenin, cell viability by CCK8; format: cell-based, human; conditions: for cell death, single agent: apigenin or WST-3 alone
Description: as §3

[7] = test system: UM-SCC6, HT1080, Cal27, SK-Mel-5, and HEKa cells; test: WST-3 or apigenin alone, cell viability, all tested lines; format: cell-based, human; conditions: 50 µM WST-3 or 30 μM apigenin alone, 4 hours then 24 hours
Description: as §3

HT1080 cells [8] = test: pUC19 DNA transfection plus chemotherapeutic drug, cell viability; format: cell-based, human; conditions: for IC50 of Cis-Platinum: HT1080 cells
Description: HT1080 Cells were transfected with pUC19 DNA, pcDNA3, pUC19+pcDNA3, IKK1-KA+pUC19, IKK2-KA+pUC19, and IKK1-KA+IKK2-KA+pUC19, IKK1-KA+pcDNA3, IKK2-KA+pcDNA3, or IKK1-KA+IKK2-KA+pcDNA3, for 48 hours before the treatment of chemotherapy drugs at various doses. Cell viability was measured in 72 and 96 hours after drug treatment.
Drug treatment: Cis-Platinum 30 ng/ml-3 μg/ml (FIG. 6D), Paclitaxel 1 nM-10 μM (FIG. 6C), 5-FU 50 nM-500 μM (data not shown), Doxorubicin 30 nM-3.3 μM (data not shown).

HT1080 cells [9] = test: siRNA or Puc19 transfection combined with Taxel, cell viability by CCK8; format: cell-based, human; conditions: 72 hours after the treatment
Description: Method: HT1080 cells transfected with siRNAs that were derived from Puc19 DNA sequence and the siRNAs that targeting the corresponding genes that are the targets of the Puc19 derived siRNAs for 24 hours, then, treated with Taxel at 3, 10, 30, and 100 nM for 48 hours. After the 48 hours of Taxel treatment, cells in culture were changed to normal growth medium for 24 to 72 hours. Cell viability was monitored by CCK8 Kit every 24 hours. Data are normalized to % of untreated control cells. The siRNAs that used for this study includes siRNA#1, siRNA#2, siRHA#3, siRNA targeting TRPC6, SH3PXD2B, C6orf108, TTBK1, MAGI3, and TMEM182 as well as combination of siRNA#2+#3, and siRNA#1+#2+#3+#4+#5 (siRNAΣ1-5).

UM-SCC6 cells [10] = test: Other tetrazolium salts as substitutes of WST-1r with apigenin, cell viability; format: cell-based, human; conditions: 1 mM WST-1, 0.4 mM WST-3, 0.5 mM WST-4, 0.5 mM WST-5, 0.12 mM mPMS; apigenin 10, 30 or 100 μM; 4 hours then 24 hours
Description: (§4) Method: HT1080 and UM-SCC6 cells were treated with 1 mM WST-1, 0.4 mM WST-3, 0.5 mM WST-4, 0.5 mM WST-5 or 0.12 mM mPMS alone or each of the WST-3, WST-4, and WST-5 at the same concentration in combination with 0.12 mM mPMS (0.4 mM WST-3+0.12 mM mPMS, 0.5 mM WST-4+0.12 mM mPMS, 0.5 mM WST-5+0.12 mM mPMS) plus 10, 30 or 100 μM apigenin for 4 hours and, then changed to normal growth medium for another 24 hours. Cell viability was measured with CCK8 Kit.

HT1080 cells [11] = test: as above; format: cell-based, human; conditions: 1 mM WST-1, 0.4 mM WST-3, 0.5 mM WST-4, 0.5 mM WST-5, 0.12 mM mPMS; apigenin 10, 30 or 100 μM; 4 hours then 24 hours
Description: as §4

[12] = 4 hours, then 24 hours normal medium, combination 3% WST-1r with 100 μM apigenin or 10% WST-1r with 30 μM apigenin
[13] = combination of 30 μM apigenin and WST-3

O=c1[nH]cc(F)c(=O)[nH]1 [5-FU, 5-fluoro-2,4-(1H,3H) pyrimidinedione]
IC50 (UM-SCC-6 cells; pUC19 transfected UM-SCC6 cells): 200 µM
IC50 (UM-SCC-6 cells; untransfected UM-SCC6 cells): > 1000 µM

O=c1cc(-c2ccc(O)cc2)oc2cc(O)cc(O)c12 [Apigenin, 4H-1-benzopyran-4-one,5,7-dihydroxy-2-(4-hydroxy-phenyl)-(9CI)]
cell viabilities, single agent treatment [1]: little effect on cell viabilities
phosphorylation of JNK (ratio phosphorylated over total JNK) [2]: dose dependent induction of phosphorylation of JNK
cell death / cell survival (MDA-MB-231 cells; [12]): little effect on cell survival
IC50 (MDA-MB-231 cells; Homo sapiens, MDA-MB-231, in the presence of 10% WST-1r): 10 µM
cell death / cell survival (A431 cells; [12]): little effect on cell survival
IC50 (A431 cells; Homo sapiens, A-431, in the presence of 10% WST-1r): 10 µM
ROS generation, agent alone ([3]; 4 hours): no effect on ROS generation
ROS generation ([3]; apigenin combined with CCK8, apigenin dose dependent): increase the ROS generation
Apigenin 1050 (UM-SCC6 cells [4]; CCK8+apigenin): did not reached 1050
IC50 (UM-SCC6 cells [4]; 10% WST-1r treated UM-SCC6 cells): 5 µM
IC50 (UM-SCC6 cells [4]; 10% XTT treated UM-SCC6 cells): 25 µM
Apigenin 1050 (UM-SCC6 cells [4]; apigenin only): did not reached 1050
cell death (UM-SCC6 cells [5]): dose dependent cell death
cell death (HT1080 cells [6]): dose dependent cell death
cell death, single agent (non cancer HEKa cells): limited cell death
cell death, single agent (SK-Mel-5 cells): dose dependent but limited cell death
cell death, single agent [7]: no or limited effect of cell death

N.N.[Cl][Pt][Cl] [Cis-Platinum, cis-diamminedichloroplatinum]
IC50 of Cis-Platinum (HT1080 cells [8]; pUC19 transfected): 0.3 µg/mL
IC50 of Cis-Platinum (HT1080 cells [8]; untransfecte control): 3 µg/mL
untransfected cells at 96 hours after drug treatment (HT1080 cells [8]): recovered and grown up
IC50 of Cis-Platinum (UM-SCC-6 cells; pUC19 transfected): 1 µg/mL
IC50 of Cis-Platinum (UM-SCC-6 cells; untransfecte control): 3 µg/mL

CC(=O)O[C@H]1C(=O)[C@@]2(C)[C@H]([C@H](OC(=O)c3ccccc3)[C@]3(O)C[C@H](OC(=O)[C@H](O)[C@@H](NC(=O)c4ccccc4)c4ccccc4)C(C)=C1C3(C)C)[C@]1(OC(C)=O)CO[C@@H]1C[C@@H]2O [Paclitaxel]
IC50 (HT1080 cells [9]; Homo sapiens, HT-1080, Contrl (untransfected)): 60 nM
cell survival / cell death (HT1080 cells [9]; Taxel 3-100 nM): dose dependent cell death
IC50 (HT1080 cells [8]; Homo sapiens, HT-1080, pUC19 transfected HT1080 cells, read-out: IC50 of texal): 20 nM
response to texal (HT1080 cells [8]; untransfected HT1080 cells): did not show any response upto 100 nM
untransfected cells at 96 hours after drug treatment (HT1080 cells [8]): recovered and grown up

O=[N+]([O-])c1ccc(-[n+]2nc(-c3ccc(S(=O)(=O)[O-])cc3S(=O)(=O)[O-])nn2-c2ccc(I)cc2)c([N+](=O)[O-])c1.[Na+] [WST-3, 2-(4-Iodophenyl)-3-(2,4-dinitrophenyl)-5-(2,4-disulfophenyl)-2H-tetrazolium, sodium salt]
cell death, single agent (non cancer HEKa cells): limited cell death
IC50 (non cancer HEKa cells; [13]): 40 µM
cell death, single agent (SK-Mel-5 cells): dose dependent but limited cell death
IC50 (SK-Mel-5 cells; [13]): 20 µM
WST-3 IC50 in SK-Mel-5 compared with HEKa cells (SK-Mel-5 cells; combination with 30 μM apigenin): one fold less than that from HEKa cells
cell death, single agent [7]: no or limited effect of cell death

COc1cc(-c2ccc(-n3nc(-c4ccc(C(=O)N(CCS(=O)(=O)[O-])CCS(=O)(=O)[O-])cc4)n[n+]3-c3nc4ccccc4s3)c(OC)c2)ccc1-n1nc(-c2ccc(C(=O)N(CCS(=O)(=O)[O-])CCS(=O)(=O)[O-])cc2)n[n+]1-c1nc2ccccc2s1.[Na+].[Na+] [WST-5]
synergistic effect on inducing cell death in combination with apigenin (UM-SCC6 cells [10]): no such effect
synergistic effect on inducing cell death in combination with apigenin (HT1080 cells [11]): no such effect
